Measured values published in ChEMBL document CHEMBL3885881, “DrugMatrix”.

Species: Rattus norvegicus
Assay: DrugMatrix - Regimen: Daily Repeat
Assay type: toxicity, organism-based, Sprague-Dawley
Set-up: regimen Daily Repeat, gender Male, age 6-8 weeks
Details: in vivo, po, 1100 mg/kg, route oral GAVAGE, dose level High, vehicle .5 % CMC; for ABSOLUTE BASOPHIL / ABSOLUTE EOSINOPHIL / ABSOLUTE LYMPHOCYTE / ABSOLUTE MONOCYTE / ABSOLUTE SEGMENTED NEUTROPHIL / BASOPHIL / EOSINOPHIL / ERYTHROCYTE COUNT / HEMATOCRIT / HEMOGLOBIN / LEUKOCYTE COUNT / LYMPHOCYTE / MEAN CORPUSCULAR HEMOGLOBIN / MEAN CORPUSCULAR HEMOGLOBIN CONCENTRATION / MEAN CORPUSCULAR VOLUME / MONOCYTE / NEUTROPHIL / NUCLEATED RED BLOOD CELLS / PLATELET COUNT: tissue Blood; for ALANINE AMINOTRANSFERASE / ALBUMIN / ALKALINE PHOSPHATASE / ASPARTATE AMINOTRANSFERASE / BLOOD UREA NITROGEN / CARBON DIOXIDE / CHLORIDE / CHOLESTEROL / CREATINE PHOSPHOKINASE / CREATININE / GLUCOSE / LACTATE DEHYDROGENASE / LIPASE / PHOSPHORUS / POTASSIUM / SODIUM / TOTAL BILIRUBIN / URIC ACID: tissue Plasma

COc1cc(NS(=O)(=O)c2ccc(N)cc2)nc(OC)n1 [SULFADIMETHOXINE]
ABSOLUTE BASOPHIL (72 h, time 3 day): 0 CELLS/uL | ABSOLUTE EOSINOPHIL (72 h, time 3 day): 176 CELLS/uL | ABSOLUTE LYMPHOCYTE (72 h, time 3 day): 8678 CELLS/uL | ABSOLUTE MONOCYTE (72 h, time 3 day): 307.33 CELLS/uL | ABSOLUTE SEGMENTED NEUTROPHIL (72 h, time 3 day): 1105.33 CELLS/uL | BASOPHIL (72 h, time 3 day): 0% | EOSINOPHIL (72 h, time 3 day): 1.67% | ERYTHROCYTE COUNT (72 h, time 3 day): 5.56 x10E6/uL | HEMATOCRIT (72 h, time 3 day): 35.03% | HEMOGLOBIN (72 h, time 3 day): 13.43 G/DL | LEUKOCYTE COUNT (72 h, time 3 day): 10.27 x10E3/uL | LYMPHOCYTE (72 h, time 3 day): 84.67% | MEAN CORPUSCULAR HEMOGLOBIN (72 h, time 3 day): 24.13 pg | MEAN CORPUSCULAR HEMOGLOBIN CONCENTRATION (72 h, time 3 day): 38.37 G/DL | MEAN CORPUSCULAR VOLUME (72 h, time 3 day): 62.93 fL | MONOCYTE (72 h, time 3 day): 3% | NEUTROPHIL (72 h, time 3 day): 10.67% | NUCLEATED RED BLOOD CELLS (72 h, time 3 day): 0 /100WBC | PLATELET COUNT (72 h, time 3 day): 1279 x10E3/uL | ALANINE AMINOTRANSFERASE (72 h, time 3 day): 62.67 u/L | ALBUMIN (72 h, time 3 day): 4.6 G/DL | ALKALINE PHOSPHATASE (72 h, time 3 day): 393.67 u/L | ASPARTATE AMINOTRANSFERASE (72 h, time 3 day): 75.67 u/L | BLOOD UREA NITROGEN (72 h, time 3 day): 18 mg/dL | CARBON DIOXIDE (72 h, time 3 day): 27.67 mmol/L | CHLORIDE (72 h, time 3 day): 102.67 MEQ/L | CHOLESTEROL (72 h, time 3 day): 67.67 mg/dL | CREATINE PHOSPHOKINASE (72 h, time 3 day): 189.67 u/L | CREATININE (72 h, time 3 day): 0.32 mg/dL | GLUCOSE (72 h, time 3 day): 153.33 mg/dL | LACTATE DEHYDROGENASE (72 h, time 3 day): 129.33 u/L | LIPASE (72 h, time 3 day): 9.33 u/L | PHOSPHORUS (72 h, time 3 day): 12.17 mg/dL | POTASSIUM (72 h, time 3 day): 6.03 MEQ/L | SODIUM (72 h, time 3 day): 145.53 MEQ/L | TOTAL BILIRUBIN (72 h, time 3 day): 0.17 mg/dL | URIC ACID (72 h, time 3 day): 1.37 mg/dL | ABSOLUTE BASOPHIL (120 h, time 5 day): 0 CELLS/uL | ABSOLUTE EOSINOPHIL (120 h, time 5 day): 186.33 CELLS/uL | ABSOLUTE LYMPHOCYTE (120 h, time 5 day): 11316.33 CELLS/uL | ABSOLUTE MONOCYTE (120 h, time 5 day): 266.33 CELLS/uL | ABSOLUTE SEGMENTED NEUTROPHIL (120 h, time 5 day): 1431 CELLS/uL | BASOPHIL (120 h, time 5 day): 0% | EOSINOPHIL (120 h, time 5 day): 1.33% | ERYTHROCYTE COUNT (120 h, time 5 day): 5.62 x10E6/uL | HEMATOCRIT (120 h, time 5 day): 35.53% | HEMOGLOBIN (120 h, time 5 day): 13.53 G/DL | LEUKOCYTE COUNT (120 h, time 5 day): 13.2 x10E3/uL | LYMPHOCYTE (120 h, time 5 day): 86% | MEAN CORPUSCULAR HEMOGLOBIN (120 h, time 5 day): 24.1 pg | MEAN CORPUSCULAR HEMOGLOBIN CONCENTRATION (120 h, time 5 day): 38.1 G/DL | MEAN CORPUSCULAR VOLUME (120 h, time 5 day): 63.17 fL | MONOCYTE (120 h, time 5 day): 2% | NEUTROPHIL (120 h, time 5 day): 10.67% | NUCLEATED RED BLOOD CELLS (120 h, time 5 day): 0 /100WBC | PLATELET COUNT (120 h, time 5 day): 1313.67 x10E3/uL | ALANINE AMINOTRANSFERASE (120 h, time 5 day): 48.67 u/L | ALBUMIN (120 h, time 5 day): 4.57 G/DL | ALKALINE PHOSPHATASE (120 h, time 5 day): 294.67 u/L | ASPARTATE AMINOTRANSFERASE (120 h, time 5 day): 97 u/L | BLOOD UREA NITROGEN (120 h, time 5 day): 21.67 mg/dL | CARBON DIOXIDE (120 h, time 5 day): 25.33 mmol/L | CHLORIDE (120 h, time 5 day): 102.33 MEQ/L | CHOLESTEROL (120 h, time 5 day): 65 mg/dL | CREATINE PHOSPHOKINASE (120 h, time 5 day): 679 u/L | CREATININE (120 h, time 5 day): 0.26 mg/dL | GLUCOSE (120 h, time 5 day): 151.67 mg/dL | LACTATE DEHYDROGENASE (120 h, time 5 day): 445 u/L | LIPASE (120 h, time 5 day): 8.67 u/L | PHOSPHORUS (120 h, time 5 day): 11.87 mg/dL | POTASSIUM (120 h, time 5 day): 5.23 MEQ/L | SODIUM (120 h, time 5 day): 144.1 MEQ/L | TOTAL BILIRUBIN (120 h, time 5 day): 0.1 mg/dL | URIC ACID (120 h, time 5 day): 1.4 mg/dL
